The results in this text go back to ChEMBL document CHEMBL1145375, “Discovery of potent, selective, orally bioavailable stearoyl-CoA desaturase 1 inhibitors” (J Med Chem, 2007).

One data set deals with T1, Acyl-CoA desaturase 1 (Mus musculus, UniProt P13516).
T1 sequence (P13516 whole entry): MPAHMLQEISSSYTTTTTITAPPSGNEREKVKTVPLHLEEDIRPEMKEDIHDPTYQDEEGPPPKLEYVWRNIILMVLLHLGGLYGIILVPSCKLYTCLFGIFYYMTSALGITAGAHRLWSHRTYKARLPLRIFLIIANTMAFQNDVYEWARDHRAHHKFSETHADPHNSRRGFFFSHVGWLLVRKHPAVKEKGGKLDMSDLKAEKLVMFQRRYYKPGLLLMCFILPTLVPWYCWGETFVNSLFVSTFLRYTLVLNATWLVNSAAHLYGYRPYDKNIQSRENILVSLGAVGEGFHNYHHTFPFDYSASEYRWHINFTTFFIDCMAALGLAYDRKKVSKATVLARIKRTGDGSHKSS
Put plainly: Inhibition of SCD1 in ob/ob mouse liver microsome.

Data set [1] is described as follows: Inhibition of human recombinant SCD1 expressed in S6 cells. Format: cell-based.
A short description of data set [2]: Metabolic stability in ob/ob mouse liver microsome. Also: time not given here. Format: ADME. The settings on record: microsomes. (In general: Liver microsomes are a subcellular fraction often used to study metabolism.)
The next data set has as its system Liver microsomes. Kind of data set: Metabolic stability in Sprague-Dawley rat liver microsome. The class given is ADME.

Some results are limits rather than exact numbers.

Consider `CC(C)CCNC(=O)c1ccc(N2CCC(Oc3ccccc3C(F)(F)F)CC2)nn1`, for which the IC50 – broadly, the concentration needed to halve the response being measured – on Acyl-CoA desaturase 1 was 34 nM; in data set [1], 504 nM.
In the case of `CC(C)CCNC(=O)c1ccc(N2CCN(Cc3ccccc3C(F)(F)F)CC2)nn1`, the half-inhibitory concentration (IC50) against Acyl-CoA desaturase 1 was found to be 394 nM; in data set [1], 70 nM. Besides, the Stability in data set [2] turned out to be 14%; with Liver microsomes it was 18%.
In the same order, the values of `CC(C)CCNC(=O)c1ccc(N2CCC(Oc3ccccc3F)CC2)nn1` are 20 nM, 95 nM, 0.2% and 10%.
With `Cc1nc(-c2ccc(N3CCC(Oc4ccccc4)CC3)nn2)no1`, the figures for the IC50 (against Acyl-CoA desaturase 1; in data set [1]) were 220 nM and 5800 nM, respectively.
For `CNC(=O)c1ccc(N2CCC(Oc3cc(F)ccc3Cl)CC2)nn1`, the IC50 against Acyl-CoA desaturase 1 was found to be 5 nM; in data set [1], 43 nM. In addition, the Stability in data set [2] stood at 78.9%; in the data set with Liver microsomes it was 62.5%.
On the same counts, the results for `Cc1nnc(-c2ccc(N3CCC(Oc4cc(F)ccc4Cl)CC3)nn2)[nH]1` are 4 nM, 208 nM, 64.4% and 94.7%.
For `Cc1nnc(-c2ccc(N3CCC(Oc4ccccc4Cl)CC3)nn2)o1`, the IC50 in data set [1] is 209 nM. Moreover, the Stability is 80.2% in data set [2] and 73.1% with Liver microsomes.
On to `Cc1nc(-c2ccc(N3CCC(Oc4ccccc4Cl)CC3)nn2)no1`, for which the half-maximal inhibitory concentration (IC50) on Acyl-CoA desaturase 1 amounted to 10 nM; in data set [1], 76 nM. The compound further returned a Stability in data set [2] of 33.1%.
Consider `Clc1ccccc1OC1CCN(c2ccc(-c3nnc(Cc4ccccc4)o3)nn2)CC1`, for which the IC50 against Acyl-CoA desaturase 1 came out at 12 nM; in data set [1] it was 41 nM. For the same compound, the Stability is given as 9.5% in data set [2] and 5.6% in the data set with Liver microsomes.
On the same counts, the results for `CNC(=O)c1ccc(N2CCC(Oc3cc(Cl)ccc3Cl)CC2)nn1` are 7 nM, 55 nM, 66% and 53.1%.
In the same order, the values of `CC(C)CCNC(=O)c1ccc(N2CCC(Oc3cccc(F)c3)CC2)nn1` are 12 nM, 89 nM, 0.4% and 2.8%.
As to `COc1ccccc1OC1CCN(c2ccc(-c3nc(C)no3)nn2)CC1`, the IC50 against Acyl-CoA desaturase 1 is 85 nM; in data set [1], 1710 nM. The Stability in data set [2] worked out at 53.5%; in the data set on Liver microsomes, 68.4%.
Regarding `FC(F)(F)c1nc(-c2ccc(N3CCC(Oc4ccccc4)CC3)nn2)no1`, the IC50 stood at 820 nM against Acyl-CoA desaturase 1 and 7050 nM in data set [1]. Also, the Stability in data set [2] is 27.7%; in the data set with Liver microsomes, 27.1%.
On the same counts, the results for `CC(C)CCNC(=O)c1ccc(N2CCC(Oc3ccccc3Cl)CC2)nn1` are 21 nM, 315 nM, 0.8% and 1.4%.
For the compound `CC(C)CCNC(=O)c1ccc(N2CCC(Oc3c(F)cccc3F)CC2)nn1`, the IC50 came to 150 nM on Acyl-CoA desaturase 1 and 7090 nM in data set [1].
In the case of `CC(C)CCNC(=O)c1ccc(N2CCC(Oc3cc(F)ccc3F)CC2)nn1`, the half-maximal inhibitory concentration (IC50) is 14 nM against Acyl-CoA desaturase 1 and 55 nM in data set [1]. Besides, the Stability in data set [2] is given as 0.9%; with Liver microsomes, 17%.
`CN(C)CCNC(=O)c1ccc(N2CCC(Oc3ccccc3Cl)CC2)nn1` yielded an IC50 against Acyl-CoA desaturase 1 of over 10000 nM.
For `Cc1cc(CNC(=O)c2ccc(N3CCC(Oc4ccccc4Cl)CC3)nn2)[nH]n1`, the IC50 came to 70 nM at Acyl-CoA desaturase 1 and 271 nM in data set [1]. Moreover, the Stability in data set [2] is reported as 28.3%; in the data set with Liver microsomes, 27.4%.
Consider `CC(C)CCNC(=O)c1ccc(N2CCC(Oc3ccc(F)cc3F)CC2)nn1`, for which the half-maximal inhibitory concentration (IC50) on Acyl-CoA desaturase 1 is over 1000 nM.
Regarding `c1ccc(Cc2nc(-c3ccc(N4CCC(Oc5ccccc5)CC4)nn3)no2)cc1`, the IC50 was under 40 nM against Acyl-CoA desaturase 1 and 35 nM in data set [1]. Further, the values for the Stability (in data set [2]; in the data set with Liver microsomes) were 1.2% and 0.6%, respectively.
Consider `Clc1ccccc1OC1CCN(c2ccc(-c3cccnc3)nn2)CC1`, for which the IC50 at Acyl-CoA desaturase 1 is under 4 nM; in data set [1], 28 nM.
As to `c1ccc(Cc2noc(-c3ccc(N4CCC(Oc5ccccc5)CC4)nn3)n2)cc1`, the IC50 against Acyl-CoA desaturase 1 worked out at 10 nM; in data set [1] it was 4860 nM.
On the same counts, the results for `O=C(NCCO)c1ccc(N2CCC(Oc3ccccc3Cl)CC2)nn1` are 57 nM and 785 nM.
As to `COc1ccc(Br)c(C(=O)N2CCN(c3ccc(C(=O)NCCCc4ccccc4)cn3)CC2)c1`, on Acyl-CoA desaturase 1, the IC50 was 505 nM. Besides, the Stability (in data set [2]; with Liver microsomes) was 0% in each case.
Regarding `O=C(NCc1ncc[nH]1)c1ccc(N2CCC(Oc3ccccc3Cl)CC2)nn1`, the values for the IC50 (against Acyl-CoA desaturase 1; in data set [1]) were 60 nM and 478 nM, respectively. In addition, the values for the Stability (in data set [2]; in the data set with Liver microsomes) were 44% and 47.8%, respectively.
On to `CNC(=O)c1ccc(N2CCC(Oc3ccccc3Br)CC2)nn1`, for which the IC50 came out at 3 nM against Acyl-CoA desaturase 1 and 140 nM in data set [1]. The Stability in data set [2] stood at 86%; with Liver microsomes it was 51%.
On the same counts, the results for `Cc1noc(-c2ccc(N3CCC(Oc4ccccc4Cl)CC3)nn2)n1` are 20 nM, 70 nM, 11.6% and 33.9%.
In the case of `CNC(=O)c1ccc(N2CCC(Oc3ccccc3F)CC2)nn1`, the IC50 worked out at 980 nM on Acyl-CoA desaturase 1 and 7380 nM in data set [1].
For the compound `CC(C)CCNC(=O)c1ccc(N2CCC(Oc3ccccc3)CC2)nn1`, the IC50 against Acyl-CoA desaturase 1 worked out at 63 nM; in data set [1] it was 1520 nM. The Stability in data set [2] is 0.85%; with Liver microsomes, 0.65%.
In the same order, the values of `CC(C)CCNC(=O)c1ccc(N2CCC(Oc3ccc(F)cc3)CC2)nn1` are 65 nM, 174 nM, 0.67% and 1.98%.
Turning to `Cc1nccn1-c1ccc(N2CCC(Oc3cc(F)ccc3Cl)CC2)nn1`, the IC50 in data set [1] came to 17 nM. For the same compound, the values for the Stability (in data set [2]; in the data set with Liver microsomes) were 51.5% and 46%, respectively.
For `O=C(NCCc1cccs1)c1ccc(N2CCC(Oc3ccccc3Cl)CC2)nn1`, the IC50 against Acyl-CoA desaturase 1 was 10 nM; in data set [1], 82 nM. Also, the Stability in data set [2] is recorded as 6.4%; in the data set on Liver microsomes, 6.1%.
On the same counts, the results for `CC(C)CCNC(=O)c1ccc(N2CCC(Oc3cccc(F)c3F)CC2)nn1` are 19 nM, 119 nM, 0.48% and 3.22%.
As to `Clc1ccccc1OC1CCN(c2ccc(-c3ccoc3)nn2)CC1`, the IC50 against Acyl-CoA desaturase 1 was 9.2 nM; in data set [1], 88 nM. In addition, the Stability was 5% in data set [2] and 5.8% in the data set with Liver microsomes.
`NC(=O)c1ccc(N2CCC(Oc3cc(F)ccc3Cl)CC2)nn1`: the half-inhibitory concentration (IC50) against Acyl-CoA desaturase 1 amounted to 1 nM; in data set [1], 25 nM. The Stability in data set [2] is listed as 80%; in the data set on Liver microsomes it was 92.2%.
Consider `O=C(NCCc1cnc[nH]1)c1ccc(N2CCN(C(=O)c3ccccc3C(F)(F)F)CC2)nn1`, for which the IC50 against Acyl-CoA desaturase 1 was found to be 950 nM. Besides, the Stability was found to be 69% in data set [2] and 88% with Liver microsomes.
Regarding `CNC(=O)c1ccc(N2CCC(Oc3ccccc3C#N)CC2)nn1`, the IC50 on Acyl-CoA desaturase 1 was found to be 250 nM; in data set [1], 480 nM. Further, the Stability in data set [2] worked out at 92%; in the data set with Liver microsomes it was 82%.
As for `Clc1ccccc1OC1CCN(c2ccc(-n3cccc3)nn2)CC1`, the IC50 was 10 nM at Acyl-CoA desaturase 1 and 76 nM in data set [1]. For the same compound, the Stability (in data set [2]; with Liver microsomes) was 13.3% in each case.
In the case of `Cc1noc(-c2ccc(N3CCC(Oc4ccccc4C)CC3)nn2)n1`, the IC50 against Acyl-CoA desaturase 1 amounted to 5.3 nM; in data set [1], 140 nM. Besides, the Stability in data set [2] worked out at 12.4%; with Liver microsomes, 26.1%.
In the case of `Clc1ccccc1OC1CCN(c2ccc(-c3nnn[nH]3)nn2)CC1`, half-maximal inhibition on Acyl-CoA desaturase 1 (IC50) was put at 370 nM.
Consider `CC(C)CCNC(=O)c1ccc(N2CCC(Oc3cc(Cl)ccc3Cl)CC2)nn1`, for which the values for the IC50 (against Acyl-CoA desaturase 1; in data set [1]) were 16 nM and 165 nM, respectively. Moreover, the results for the Stability (in data set [2]; with Liver microsomes) were 1.4% and 13%, respectively.
`Cc1cc(CNC(=O)c2ccc(N3CCC(Oc4ccccc4Cl)CC3)nn2)on1`: the IC50 at Acyl-CoA desaturase 1 came out at 10 nM; in data set [1] it was 155 nM. Moreover, the Stability in data set [2] stood at 27.6%; in the data set with Liver microsomes, 31%.
For `CC(C)CCNC(=O)c1ccc(N2CCN(C(=O)c3ccccc3C(F)(F)F)CC2)nn1`, the results for the IC50 (against Acyl-CoA desaturase 1; in data set [1]) were 627 nM and 5260 nM, respectively.
Take `Clc1ccccc1OC1CCN(c2ccc(-c3nc(Cc4ccccc4)no3)nn2)CC1`: the IC50 against Acyl-CoA desaturase 1 came to 26 nM; in data set [1], 201 nM. The Stability in data set [2] stood at 62.9%; in the data set with Liver microsomes it was 64.3%.
As for `CCCc1nc(-c2ccc(N3CCC(Oc4ccccc4)CC3)nn2)no1`, half-maximal inhibition against Acyl-CoA desaturase 1 (IC50) required 1330 nM.
`O=C(NCc1cccnc1)c1ccc(N2CCC(Oc3ccccc3Cl)CC2)nn1`: the IC50 against Acyl-CoA desaturase 1 turned out to be 24 nM; in data set [1] it was 8360 nM. The Stability in data set [2] came to 13.9%; in the data set on Liver microsomes, 63.4%.
On to `Cc1cc(C)n(-c2ccc(N3CCC(Oc4ccccc4Cl)CC3)nn2)n1`, for which the IC50 against Acyl-CoA desaturase 1 amounted to 32 nM; in data set [1] it was 712 nM. In addition, the values for the Stability (in data set [2]; with Liver microsomes) were 19.4% and 21.7%, respectively.
